This note sets out measurements from ChEMBL document CHEMBL1148661, “SAR studies: designing potent and selective LXR agonists” (Bioorg Med Chem Lett, 2006).

The target in series [1] is T1, Oxysterols receptor LXR-alpha (Homo sapiens, UniProt Q13133).
T1 sequence (Q13133 whole entry): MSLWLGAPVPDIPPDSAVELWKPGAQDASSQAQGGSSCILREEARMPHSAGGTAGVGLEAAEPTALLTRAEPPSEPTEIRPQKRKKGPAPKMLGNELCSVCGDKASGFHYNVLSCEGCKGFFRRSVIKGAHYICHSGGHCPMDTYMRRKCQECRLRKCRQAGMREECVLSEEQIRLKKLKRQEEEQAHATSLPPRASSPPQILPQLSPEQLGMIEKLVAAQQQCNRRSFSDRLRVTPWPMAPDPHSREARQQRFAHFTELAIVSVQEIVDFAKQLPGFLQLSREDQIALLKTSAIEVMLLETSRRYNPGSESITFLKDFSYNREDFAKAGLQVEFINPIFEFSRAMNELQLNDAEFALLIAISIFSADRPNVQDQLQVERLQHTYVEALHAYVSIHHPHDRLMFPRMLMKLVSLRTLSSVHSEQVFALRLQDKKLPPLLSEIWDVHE
Format: functional, cell-based, CHO.

Series [2] has as its target T2, Oxysterols receptor LXR-beta (Homo sapiens, UniProt P55055).
T2 sequence (P55055 whole entry): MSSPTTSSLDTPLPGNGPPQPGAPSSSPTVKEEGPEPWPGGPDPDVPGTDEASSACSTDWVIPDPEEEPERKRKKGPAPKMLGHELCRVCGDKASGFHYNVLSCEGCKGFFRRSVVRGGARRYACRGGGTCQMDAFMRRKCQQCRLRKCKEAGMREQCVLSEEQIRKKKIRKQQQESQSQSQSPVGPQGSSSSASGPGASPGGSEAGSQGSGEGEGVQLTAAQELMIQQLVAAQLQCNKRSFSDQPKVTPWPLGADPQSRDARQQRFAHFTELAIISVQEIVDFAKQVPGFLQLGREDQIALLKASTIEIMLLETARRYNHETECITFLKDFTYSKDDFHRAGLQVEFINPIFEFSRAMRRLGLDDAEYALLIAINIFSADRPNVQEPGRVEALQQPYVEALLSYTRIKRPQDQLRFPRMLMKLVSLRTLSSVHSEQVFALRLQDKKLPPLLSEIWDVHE
Format: functional, cell-based, CHO.

For series [3], the target named is T3, Peroxisome proliferator-activated receptor alpha (Homo sapiens, UniProt Q07869).
T3 sequence (Q07869 whole entry): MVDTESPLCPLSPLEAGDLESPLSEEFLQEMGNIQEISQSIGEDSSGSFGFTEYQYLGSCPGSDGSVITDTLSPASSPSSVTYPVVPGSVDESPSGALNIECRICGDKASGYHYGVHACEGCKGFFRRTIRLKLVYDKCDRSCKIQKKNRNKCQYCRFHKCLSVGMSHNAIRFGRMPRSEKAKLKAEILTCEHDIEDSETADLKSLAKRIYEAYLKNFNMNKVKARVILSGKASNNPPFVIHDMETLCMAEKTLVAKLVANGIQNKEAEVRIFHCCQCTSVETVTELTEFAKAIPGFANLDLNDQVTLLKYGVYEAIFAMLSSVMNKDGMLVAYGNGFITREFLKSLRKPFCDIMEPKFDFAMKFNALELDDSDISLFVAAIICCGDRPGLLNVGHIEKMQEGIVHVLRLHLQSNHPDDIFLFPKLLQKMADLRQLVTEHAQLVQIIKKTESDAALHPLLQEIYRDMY

In series [4] the target is T4, Peroxisome proliferator-activated receptor delta (Homo sapiens, UniProt Q03181).
T4 sequence (Q03181 whole entry): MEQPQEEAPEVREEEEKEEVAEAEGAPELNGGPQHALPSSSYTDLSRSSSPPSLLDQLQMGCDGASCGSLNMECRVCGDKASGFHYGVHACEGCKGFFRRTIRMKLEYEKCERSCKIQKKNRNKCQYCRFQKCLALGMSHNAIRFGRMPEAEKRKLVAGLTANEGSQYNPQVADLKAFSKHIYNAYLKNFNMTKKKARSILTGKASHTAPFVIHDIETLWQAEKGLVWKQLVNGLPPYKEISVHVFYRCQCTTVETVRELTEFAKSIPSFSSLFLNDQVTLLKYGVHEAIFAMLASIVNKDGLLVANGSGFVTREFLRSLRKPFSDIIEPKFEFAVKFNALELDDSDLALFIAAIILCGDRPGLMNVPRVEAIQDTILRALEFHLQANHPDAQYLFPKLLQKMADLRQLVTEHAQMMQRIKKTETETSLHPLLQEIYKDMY

The target in series [5] is T1, Oxysterols receptor LXR-alpha.
Series [6] has as its target T2, Oxysterols receptor LXR-beta.
The species entered for a further series is Mus musculus. As to conditions: in vivo.
Series [7] is described as follows: in vivo. The following applies: mouse, iv, 0.5 mg/kg.
Series [8] is described as follows: in vivo. The following applies: mouse, iv, 0.5 mg/kg. This is another data set of the same source.
Series [9] can be described thus: in vivo. As to conditions: mouse.

For the compound `CCCc1c(OCCCNc2ccc(CC(=O)O)cc2)ccc2c(C(F)(F)F)noc12`, the values for the 50% effective concentration (EC50) in [1] and in series [2] were 8000 nM and 7700 nM, respectively. The IC50 in series [3] came to 16 nM; in series [4] it was 88 nM; in [5] it was 68 nM; in series [6], 89 nM.
In the case of `CCCc1c(OCCCN2C(=O)Cc3cc(C(=O)O)ccc32)ccc2c(C(F)(F)F)noc12`, the EC50 amounted to 3000 nM in [1] and 4400 nM in series [2]. Besides, the IC50 in series [5] came out at 97 nM; in series [6], 700 nM.
Take `CCCc1c(OCCCn2nnc3cc(CC(=O)O)ccc32)ccc2c(C(F)(F)F)noc12`: the EC50 in series [1] is 2300 nM; in series [2], 1700 nM. Further, the results for the half-maximal inhibitory concentration (IC50) in [3], in series [5] and in [6] were 4400 nM, 410 nM and 350 nM, respectively.
On to `CCCc1c(OCCCN(C)c2ccc(CC(=O)O)c(C)c2)ccc2c(C(F)(F)F)noc12`, for which the values for the concentration for a half-maximal effect (EC50) in series [1] and in [2] were 1300 nM and 303 nM, respectively. Further, the 50% inhibitory concentration (IC50) in series [3] worked out at 870 nM; in series [4], 150 nM; in series [5] it was 117 nM; in series [6], 26 nM.
Turning to `CCCc1c(OCCCN(CC)c2ccc(CC(=O)O)cc2)ccc2c(C(F)(F)F)noc12`, the IC50 in series [3] is 2600 nM; in [4] it was 8600 nM; in series [5] it was 110 nM; in series [6] it was 140 nM.
For the compound `CCCc1c(OCCCn2ncc3cc(CC(=O)O)ccc32)ccc2c(C(F)(F)F)noc12`, the EC50 was 480 nM in series [1] and 580 nM in series [2]. For the same compound, the figures for the half-inhibitory concentration (IC50) in series [3], in series [5] and in series [6] were 780 nM, 73 nM and 87 nM, respectively.
For the compound `O=C(O)Cc1cccc(OCCCN(Cc2cccc(C(F)(F)F)c2Cl)CC(c2ccccc2)c2ccccc2)c1`, the AUC in the series filed under Mus musculus came to 2 µM·kg·h/mg. This compound gave a clearance in the series “in vivo [7]” of 8 mL/min/kg. In “in vivo [8]”, the Vd came out at 1.2 L/kg. Also, in the series “in vivo [9]”, the half-life is 3.4 h.
For `CCCc1c(OCCCCc2ccc(CC(=O)O)cc2)ccc2c(C(F)(F)F)noc12`, the IC50 in [5] was found to be 530 nM; in series [6], 970 nM.
On to `CCCc1c(OCCCN(C)c2ncc(CC(=O)O)cn2)ccc2c(C(F)(F)F)noc12`, for which the values for the EC50 in [1] and in series [2] were 620 nM and 470 nM, respectively. For the same compound, the IC50 in series [5] is 26 nM; in [6] it was 55 nM.
Turning to `CCCc1c(OCCCN(C)c2cccc(CC(=O)O)c2)ccc2c(C(F)(F)F)noc12`, the EC50 in [1] worked out at 2600 nM; in [2], 3500 nM. Moreover, the IC50 in [3] amounted to 1500 nM; in series [4], 93 nM; in series [5] it was 102 nM; in series [6] it was 98 nM.
With `CCCc1c(OCCCN(C)c2ccc(CC(=O)O)cn2)ccc2c(C(F)(F)F)noc12`, a half-maximal response in [1] (EC50) required 5000 nM. The half-inhibitory concentration (IC50) in [5] worked out at 105 nM; in series [6] it was 630 nM.
As for `CCCc1c(OCCCN(C)c2ccc(CC(=O)O)cc2C)ccc2c(C(F)(F)F)noc12`, the 50% inhibitory concentration (IC50) in series [3] turned out to be 600 nM; in series [5], 580 nM; in series [6] it was 320 nM.
For `CCCc1c(OCCCn2ccc3cc(CCC(=O)O)ccc32)ccc2c(C(F)(F)F)noc12`, the values for the concentration for a half-maximal effect (EC50) in series [1] and in series [2] were 820 nM and 700 nM, respectively. Further, the half-maximal inhibitory concentration (IC50) in series [3] came to 450 nM; in series [4], 70 nM; in series [5], 18 nM; in [6], 6 nM.
Consider `CCCc1c(OCCCN(C(C)=O)c2ccc(CC(=O)O)cc2)ccc2c(C(F)(F)F)noc12`, for which, in series [5], the IC50 turned out to be 6400 nM.
Take `CCCc1c(OCCCN(C)c2ccc(CC(=O)O)cc2Cl)ccc2c(C(F)(F)F)noc12`: the IC50 was 49 nM in series [4], 630 nM in [5] and 170 nM in series [6].
With `CCCc1c(OCCCn2ccc3cc(C(=O)O)ccc32)ccc2c(C(F)(F)F)noc12`, the EC50 in series [1] amounted to 1900 nM; in series [2], 2800 nM. Besides, the half-maximal inhibitory concentration (IC50) came out at 8300 nM in series [3], 72 nM in series [5] and 199 nM in series [6].
For `CCCc1c(OCCCOc2ccc(CC(=O)O)cc2Cl)ccc2c(C(F)(F)F)noc12`, a half-maximal response in [2] (EC50) required 9700 nM. For the same compound, the IC50 was determined as 230 nM in series [3], 39 nM in series [5] and 65 nM in series [6].
In the case of `CCCc1c(OCCCOc2ccc(CC(=O)O)cc2)ccc2c(C(F)(F)F)noc12`, the IC50 was determined as 19 nM in series [3], 8 nM in [4], 730 nM in series [5] and 100 nM in [6].
Consider `CCCc1c(OCCCN(C)c2ccc(CC(=O)O)c(Cl)c2)ccc2c(C(F)(F)F)noc12`, for which the values for the EC50 in series [1] and in [2] were 170 nM and 124 nM, respectively. For the same compound, the half-inhibitory concentration (IC50) in series [4] is 1400 nM; in series [5], 12 nM; in series [6] it was 10 nM.
`CCCc1c(OCCCSc2ccc(CC(=O)O)cc2Cl)ccc2c(C(F)(F)F)noc12` showed an EC50 in [1] of 5900 nM. For the same compound, the IC50 in [3] worked out at 280 nM; in [4], 4 nM; in series [5], 32 nM.
On to `CCCc1c(OCCCN(C)c2ncc(CC(=O)O)s2)ccc2c(C(F)(F)F)noc12`, for which the figures for the EC50 in [1] and in series [2] were 1100 nM and 650 nM, respectively. In addition, the IC50 in series [5] is 67 nM; in series [6] it was 100 nM. For the same compound, in the series listed under Mus musculus, the AUC was 3.1 µM·kg·h/mg. Also, the clearance in “in vivo [7]” stood at 13 mL/min/kg. For the same compound, the Vd in “in vivo [8]” is 1.2 L/kg. For the same compound, the half-life in “in vivo [9]” is 1.2 h.
On to `CCCc1c(OCCCn2cnc3cc(CC(=O)O)ccc32)ccc2c(C(F)(F)F)noc12`, for which, in series [2], the concentration for a half-maximal effect (EC50) was 8600 nM. Also, the IC50 in series [4] was 1800 nM; in series [5], 180 nM; in [6] it was 410 nM.
Compound `CCCc1c(OCCCN(C=O)c2ccc(CC(=O)O)cc2)ccc2c(C(F)(F)F)noc12` registered a half-inhibitory concentration (IC50) in [5] of 6400 nM.
Take `CCCc1c(OCCCN(C)c2ccccc2)ccc2c(C(F)(F)F)noc12`: the half-maximal inhibitory concentration (IC50) in series [5] amounted to 372 nM; in series [6], 428 nM.
As for `CCCc1c(OCCCN(C)c2ccc(C(=O)O)cc2)ccc2c(C(F)(F)F)noc12`, the concentration giving a half-maximal response (EC50) in series [1] amounted to 6000 nM; in series [2], 5100 nM. For the same compound, the figures for the IC50 in series [5] and in series [6] were 79 nM and 190 nM, respectively.
In the case of `CCCc1c(OCCCN(C)c2ccc(CC(=O)O)c(C(F)(F)F)c2)ccc2c(C(F)(F)F)noc12`, the 50% effective concentration (EC50) in series [1] came to 3600 nM; in series [2] it was 1300 nM. Besides, the IC50 in series [3] amounted to 140 nM; in series [4], 540 nM; in series [5] it was 60 nM; in series [6], 18 nM.
As to `CCCc1c(OCCCN(C)c2ccc(CC(=O)O)cc2)ccc2c(C(F)(F)F)noc12`, the concentration giving a half-maximal response (EC50) was determined as 450 nM in [1] and 360 nM in series [2]. The IC50 in series [3] is 310 nM; in series [4] it was 310 nM; in series [5] it was 18 nM; in series [6] it was 25 nM.
With `CCCc1c(OCCCN(C)c2cnc(CC(=O)O)cn2)ccc2c(C(F)(F)F)noc12`, the half-maximal effective concentration (EC50) stood at 540 nM in series [1] and 150 nM in series [2]. The IC50 in series [5] was found to be 90 nM; in series [6], 40 nM. Also, the AUC in the series listed under Mus musculus turned out to be 7.5 µM·kg·h/mg. Moreover, the clearance in the series “in vivo [7]” was determined as 17 mL/min/kg. The compound further came in with a distribution volume (Vd) in “in vivo [8]” of 2.8 L/kg. In “in vivo [9]”, the half-life was 2.1 h.
